Reference: US5373000A, “7Beta-(thiadiazolyl)-2-iminoacetamido-3cephem compounds” (Eisai Co., Ltd., priority 1985, dated 1994)
Converted amounts (≈) assume the structure as drawn. Where a name gives a salt, the structure may show the parent alone. Read-outs that look alike come from different tables or passages of the source.

Key:
Assay in all cases: Antibacterial activities, MIC
Type in all cases: cell-based
[1] = test system: Staph. aureus 209-P
[2] = test system: Ser. marcescens ES-75
[3] = test system: Morg. morganii EP-14
[4] = test system: Pseud. aeruginosa EP-01
[5] = test system: Kleb Pneumoniae EK-6
[6] = test system: Escher. coli NIHJ
[7] = Staphylococcus aureus, read-out: MIC
[8] = Serratia marcescens, ES75, read-out: MIC
[9] = Morganella morganii, EP14, Morg. morganii EP-14, read-out: MIC
[10] = Pseudomonas aeruginosa, EP01, Pseud. aeruginosa EP-01, read-out: MIC
[11] = Escherichia coli, read-out: MIC

Compound | MIC [1, 7] [µg/mL] | MIC [2, 8] [µg/mL] | MIC [3, 9] [µg/mL] | MIC [4, 10] [µg/mL] | MIC ([5]; read-out: MIC) [µg/mL] | MIC [6, 11] [µg/mL] | MIC [1] [µg/mL] | MIC [2] [µg/mL] | MIC ([3]; Morg. morganii EP-14) [µg/mL] | MIC ([4]; Pseud. aeruginosa EP-01) [µg/mL] | MIC [5] [µg/mL] | MIC [6] [µg/mL]
CO/N=C(\C(=O)N[C@@H]1C(=O)N2C(C(=O)[O-])=C(/C=C/C[N+]3(C)CCCN3C)CS[C@H]12)c1nsc(N)n1 (single isomer, unassigned) [Example 30-A, 7β-[2-(5-Amino-1,2,4-thiadiazol-3-yl)-(Z)-2-methoxyiminoacetamido]-3-[(E)-(1,2-dimethyl-1-pirazolydinio)-1-propen-1-yl]-3-cephem-4-carboxylate] | 0.1 (≈ 0.191 µM) | 0.05 (≈ 0.0957 µM) | ≤ 0.025 | 0.4 (≈ 0.765 µM) | ≤ 0.025 | ≤ 0.025 | – | – | – | – | – | –
CO/N=C(\C(=O)N[C@@H]1C(=O)N2C(C(=O)[O-])=C(/C=C/C[N+]3(C)CCCN3C)CS[C@H]12)c1nsc(N)n1 (single isomer, unassigned) [Example 30-B, 7β-[2-(5-Amino-1,2,4-thiadiazol-3-yl)-(Z)-2-methoxyiminoacetamido]-3-[(E)-(1,2-dimethyl-1-pirazolydinio)-1-propen-1-yl]-3-cephem-4-carboxylate] | – | – | – | – | – | – | 0.1 (≈ 0.191 µM) | 0.05 (≈ 0.0957 µM) | 0.05 (≈ 0.0957 µM) | 0.8 (≈ 1.53 µM) | ≤ 0.025 | ≤ 0.025
CO/N=C(\C(=O)N[C@@H]1C(=O)N2C(C(=O)[O-])=C(/C=C/C[N+]3(C)CC=CC3)CS[C@H]12)c1nsc(N)n1 [Example 2, 7β-[2-(5-Amino-1,2,4-thiadiazol-3-yl)-(Z)-2-methoxyiminoacetamido]-3-[(E)-3-(1-methyl-3-pyrrolinio)-1-propene-1-yl)-3-cephem-4-carboxylate] | 0.2 (≈ 0.396 µM) | 0.1 (≈ 0.198 µM) | 0.05 (≈ 0.0989 µM) | 1.56 (≈ 3.09 µM) | ≤ 0.025 | 0.05 (≈ 0.0989 µM) | – | – | – | – | – | –
CO/N=C(\C(=O)N[C@@H]1C(=O)N2C(C(=O)[O-])=C(/C=C/C[N+]3(C)CCC[C@H]3CO)CS[C@H]12)c1nsc(N)n1 (stereo partly drawn) [Example 3, 7β-[2-(5-Amino-1,2,4-thiadiazol-3-yl)-(Z)-2-methoxyiminoacetamido]-3-[(E)-3-((2S)-2-hydroxymethyl-1-methylpyrrolidinio)-1-propen-1-yl]-3-cephem-4-carboxylate] | 0.2 (≈ 0.372 µM) | 0.1 (≈ 0.186 µM) | 0.05 (≈ 0.093 µM) | 1.56 (≈ 2.9 µM) | ≤ 0.025 | 0.05 (≈ 0.093 µM) | – | – | – | – | – | –
CO/N=C(\C(=O)N[C@@H]1C(=O)N2C(C(=O)[O-])=C(/C=C/C[N+]34CCC(C(N)=O)(CC3)CC4)CS[C@H]12)c1nsc(N)n1 [Example 4, 7β-[2-(5-Amino-1,2,4-thiadiazol-3-yl)-(Z)-2-methoxyiminoacetamido]-3-[(E)-3-(4-carbamoylquinuclidinio)-1-propen-1-yl]-3-cephem-4-carboxylate] | 0.4 (≈ 0.694 µM) | 0.1 (≈ 0.173 µM) | 0.05 (≈ 0.0867 µM) | 1.56 (≈ 2.71 µM) | ≤ 0.025 | 0.05 (≈ 0.0867 µM) | – | – | – | – | – | –
CO/N=C(\C(=O)N[C@@H]1C(=O)N2C(C(=O)[O-])=C(/C=C/C[N+]3(C)CCNCC3)CS[C@H]12)c1nsc(N)n1 [Example 5, 7β-[(2-(5-Amino-1,2,4-thiadiazol-3-yl)-(Z)-2-methoxyiminoacetamido]-3-[(E)-3-(1-methyl-1-piperadinio)-1-propen-1-yl]-3-cephem-4-carboxylate trifluoroacetate] | 0.2 | 0.1 | 0.1 | 0.8 | ≤ 0.025 | 0.05 | – | – | – | – | – | –
CC[N+](CC)(C/C=C/C1=C(C(=O)[O-])N2C(=O)[C@@H](NC(=O)/C(=N\OC)c3nsc(N)n3)[C@H]2SC1)CC(N)=O [Example 11, 7β-[2-(5-Amino-1,2,4-thiadiazol-3-yl)-(Z)-2-methoxyiminoacetamido]-3-[(E)-3-(carbamoylmethyldiethylammonio)-1-propen-1-yl]-3-cephem-4-carboxylate] | 0.2 (≈ 0.362 µM) | 0.1 (≈ 0.181 µM) | 0.05 (≈ 0.0905 µM) | 1.56 (≈ 2.82 µM) | ≤ 0.025 | 0.05 (≈ 0.0905 µM) | – | – | – | – | – | –
CO/N=C(\C(=O)N[C@@H]1C(=O)N2C(C(=O)[O-])=C(/C=C/C[N+](C)(C)CCN(C)C)CS[C@H]12)c1nsc(N)n1 [Example 12, 7β-[2-(5-Amino-1,2,4-thiadiazol-3-yl)-(Z)-2-methoxyiminoacetamido]-3-[(E)-3-(2-dimethylaminoethyldimethylammonio)-1-propen-1-yl]-3-cephem-4-carboxylate] | 0.4 (≈ 0.743 µM) | 0.1 (≈ 0.186 µM) | 0.1 (≈ 0.186 µM) | 1.56 (≈ 2.9 µM) | 0.05 (≈ 0.0928 µM) | 0.05 (≈ 0.0928 µM) | – | – | – | – | – | –
CO/N=C(\C(=O)N[C@@H]1C(=O)N2C(C(=O)[O-])=C(/C=C/C[n+]3ccc4n3CCOC4)CS[C@H]12)c1nsc(N)n1 [Example 14, 7β-[2-(5-Amino-1,2,4-thiadiazol-3-yl)-(Z)-2-methoxyiminoacetamido]-3-[(E)-(1-morpholino[4,3-b]pyrazolio)-1-propen-1-yl]-3-cephem-4-carboxylate] | 0.2 (≈ 0.366 µM) | 0.05 (≈ 0.0915 µM) | 0.05 (≈ 0.0915 µM) | 1.56 (≈ 2.85 µM) | ≤ 0.025 | ≤ 0.025 | – | – | – | – | – | –
CCO/N=C(\C(=O)N[C@@H]1C(=O)N2C(C(=O)[O-])=C(/C=C/C[N+](C)(C)CC(N)=O)CS[C@H]12)c1nsc(N)n1 [Example 15, 7β-[2-(5-Amino-1,2,4-thiadiazol-3-yl)-(Z)-2-ethoxyiminoacetamido]-3-[(E)-3-(carbamoylmethyldimethylammonio)-1-propen-1-yl]-3-cephem-4-carboxylate] | 0.2 (≈ 0.371 µM) | 0.2 (≈ 0.371 µM) | 0.05 (≈ 0.0928 µM) | 1.56 (≈ 2.9 µM) | 0.05 (≈ 0.0928 µM) | 0.1 (≈ 0.186 µM) | – | – | – | – | – | –
CO/N=C(\C(=O)N[C@@H]1C(=O)N2C(C(=O)[O-])=C(/C=C/C[N+](C)(C)CC(C)=O)CS[C@H]12)c1nsc(N)n1 [Example 17, 7β-[2-(5-Amino-1,2,4-thiadiazol-3-yl)-(Z)-2-methoxyiminoacetamido]-3-[(E)-3-(2-oxopropyldimethylammonio)-1-propen-1-yl]-3-cephem-4-carboxylate] | 0.4 (≈ 0.764 µM) | 0.1 (≈ 0.191 µM) | 0.1 (≈ 0.191 µM) | 1.56 (≈ 2.98 µM) | 0.05 (≈ 0.0955 µM) | 0.05 (≈ 0.0955 µM) | – | – | – | – | – | –
CO/N=C(\C(=O)N[C@@H]1C(=O)N2C(C(=O)[O-])=C(/C=C/C[N+](C)(C)CCO)CS[C@H]12)c1nsc(N)n1 [Example 18-A, 7β-[2-(5-Amino-1,2,4-thiadiazol-3-yl)-(Z)-2-methoxyiminoacetamido]-3-[(E)-3-(2-hydroxyethyldimethylammonio)-1-propen-1-yl]-3-cephem-4-carboxylate] | 0.2 (≈ 0.391 µM) | 0.1 (≈ 0.195 µM) | 0.05 (≈ 0.0977 µM) | 0.8 (≈ 1.56 µM) | ≤ 0.025 | ≤ 0.025 | – | – | – | – | – | –
CO/N=C(\C(=O)N[C@@H]1C(=O)N2C(C(=O)[O-])=C(/C=C/C[N+](C)(C)Cc3ncon3)CS[C@H]12)c1nsc(N)n1 [Example 21] | 0.2 (≈ 0.364 µM) | 0.05 (≈ 0.091 µM) | ≤ 0.025 | 1.56 (≈ 2.84 µM) | ≤ 0.025 | ≤ 0.025 | – | – | – | – | – | –
CO/N=C(\C(=O)N[C@@H]1C(=O)N2C(C(=O)[O-])=C(/C=C/C[N+](C)(C)Cc3cnc[nH]3)CS[C@H]12)c1nsc(N)n1 [Example 22] | 0.2 (≈ 0.365 µM) | 0.1 (≈ 0.183 µM) | 0.05 (≈ 0.0913 µM) | 1.56 (≈ 2.85 µM) | 0.05 (≈ 0.0913 µM) | 0.05 (≈ 0.0913 µM) | – | – | – | – | – | –
CO/N=C(\C(=O)N[C@@H]1C(=O)N2C(C(=O)[O-])=C(/C=C/C[N+](C)(C)Cc3cscn3)CS[C@H]12)c1nsc(N)n1 [Example 23, 7β-[2-(5-Amino-1,2,4-thiadiazol-3-yl)-(Z)-2-methoxyiminoacetamido]-3-[(E)-3[(thiazol-4-yl)methyldimethylammonio]-1-propen-1-yl]-3-cephem-4-carboxylate] | 0.2 (≈ 0.354 µM) | 0.05 (≈ 0.0885 µM) | ≤ 0.025 | 3.13 (≈ 5.54 µM) | ≤ 0.025 | ≤ 0.025 | – | – | – | – | – | –
CO/N=C(\C(=O)N[C@@H]1C(=O)N2C(C(=O)[O-])=C(/C=C/C[N+](C)(C)Cc3cc[nH]n3)CS[C@H]12)c1nsc(N)n1 [Example 24, 7β-[2-(5-Amino-1,2,4-thiadiazol-3-yl)-(Z)-2-methoxyiminoacetamido]-3-[(E)-3-[(pyrazol-3-yl)methyldimethylammonio]-1-propen-1-yl]-3-cephem-4-carboxylate] | 0.2 (≈ 0.365 µM) | 0.1 (≈ 0.183 µM) | 0.05 (≈ 0.0913 µM) | 3.13 (≈ 5.72 µM) | ≤ 0.025 | ≤ 0.025 | – | – | – | – | – | –
CO/N=C(\C(=O)N[C@@H]1C(=O)N2C(C(=O)[O-])=C(/C=C/C[N+]3(CC(N)=O)CC[C@@H](O)C3)CS[C@H]12)c1nsc(N)n1 (some centres unmarked) [Example 45-2] | – | – | – | – | – | – | 0.4 (≈ 0.706 µM) | – | ≤ 0.025 | 0.8 (≈ 1.41 µM) | ≤ 0.025 | 0.05 (≈ 0.0882 µM)
